Experiments:
[1] = target: T1, thromboxane A2 / prostaglandin H2 receptor (Cavia porcellus, UniProt A0A286Y4I8); experiment: Thromboxane A2 antagonistic effect (isolated trachea, U-46619 concentration-response curves, Schild); set-up: species or system male Hartley guinea-pigs; details: isolated guinea-pig trachea, contraction by U-46619, test compound treatment 5 minutes, indomethacin 3 × 10^-6M, method of Schild
T1 construct: tracheas were isolated from male Hartley guinea-pigs, and spiral specimens of approximately 2 cm length were prepared; from tissue; host or cells: isolated guinea-pig trachea (spiral strips)
T1 sequence (A0A286Y4I8 1-347): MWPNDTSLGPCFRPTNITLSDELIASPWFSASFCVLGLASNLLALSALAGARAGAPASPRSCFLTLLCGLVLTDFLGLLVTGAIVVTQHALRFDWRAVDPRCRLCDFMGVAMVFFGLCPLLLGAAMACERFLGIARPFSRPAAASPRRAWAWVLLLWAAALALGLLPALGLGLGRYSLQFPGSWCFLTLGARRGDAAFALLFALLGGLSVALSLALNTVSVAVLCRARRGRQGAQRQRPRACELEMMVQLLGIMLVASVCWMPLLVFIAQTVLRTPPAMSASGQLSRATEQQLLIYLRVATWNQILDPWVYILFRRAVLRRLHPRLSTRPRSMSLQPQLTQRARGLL
Procedure: According to an ordinary method, tracheas were isolated from male Hartley guinea-pigs, and spiral specimens of approximately 2 cm length were prepared. These specimens were suspended in organ baths that contained Krebs-Henseleit solution at 37°C under a resting tension of 1.5 g, and the changes in isometric tension were recorded. The first concentration-response curves were obtained by cumulative applications of 1 × 10^-9 to 3 × 10^-7M of U-46619 (Cayman, thromboxane A2 / prostaglandin H2 receptor agonist) in the organ baths. After treatments with test compounds at adequate concentrations for 5 minutes, the second concentration-response curves were obtained in the same manner as the first applications. pKB values were calculated using these two concentration-response curves according to the method of Schild [Pharmacological Review, Vol. 9, 242 (1957)]. Indomethacin (3 × 10^-6M, Sigma) was added beforehand to the organ bath to eliminate possible affections by thromboxane A2 and prostaglandin produced endogenously [Japan J. Pharmacol., Vol. 60, 227 (1992)].

[2] = tested on: bronchoconstriction induced by U-46619; experiment: Inhibitory effect on bronchoconstriction induced by U-46619 (Konzett-Roessler); assay type: in vivo, Male Hartley guinea-pigs; details: Cavia porcellus; 0.3 mg/kg orally, 2 hours before U-46619 (4 µg/kg, cervical vein), anesthetized guinea-pigs, compared to control group; read-out: Inhibition rate (%)
Procedure: Airway resistance was evaluated according to the method of Konzett-Roessler [Naunyn-Schmiedberg's Arch. Exp. Path. Pharmak., Vol. 195, 71 (1940)]. Male Hartley guinea-pigs (about 400g wt.) were anesthetized with urethane (1.5g/kg, i.p.) and ventilated by an artificial respirator (Model 683; Harvard). At the same time, overflowed air volume above the pressure of about 12cm H2O was measured by using a sensor (Model 7020; Ugo Basile) and the value was used as an index of bronchoconstriction. 0.3 mg/kg (5 ml/kg) of test compounds suspended in 5% gum Arabic was administered orally to the guinea-pigs fasted beforehand for 24 hours. After 2 hours, U-46619 (4 µg/kg; Cayman) was administered through the cervical vein, and then maximal response was measured. Inhibitory rates compared to the control group were calculated based on the response rate normalized by the complete closure as 100%. […]

leukotriene D4 = target: T2, leukotriene D4 (Cavia porcellus, UniProt Q2NNR5); experiment: Leukotriene D4 antagonistic effect (isolated trachea, leukotriene D4 concentration-response curves, Schild); set-up: species or system male Hartley guinea-pigs; details: isolated guinea-pig trachea, contraction by leukotriene D4, test compound treatment 30 minutes, indomethacin 1 × 10^-6M, method of Schild
T2 construct: tracheas were isolated from male Hartley guinea-pigs, and spiral specimens of approximately 2 cm length were prepared; from tissue; host or cells: isolated guinea-pig trachea (spiral strips)
T2 sequence (Q2NNR5 1-340): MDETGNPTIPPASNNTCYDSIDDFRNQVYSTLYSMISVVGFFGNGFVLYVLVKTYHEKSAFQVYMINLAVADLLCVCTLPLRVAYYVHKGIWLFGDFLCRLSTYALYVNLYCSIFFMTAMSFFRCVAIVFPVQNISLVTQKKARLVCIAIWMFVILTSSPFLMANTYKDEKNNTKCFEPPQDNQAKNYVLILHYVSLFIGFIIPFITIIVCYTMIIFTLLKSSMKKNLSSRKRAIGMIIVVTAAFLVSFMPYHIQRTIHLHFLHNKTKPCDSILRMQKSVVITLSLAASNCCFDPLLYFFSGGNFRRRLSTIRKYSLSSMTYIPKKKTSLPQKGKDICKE
Procedure: According to an ordinary method, tracheas were isolated from male Hartley guinea-pigs, and spiral specimens of approximately 2 cm length were prepared. These specimens were suspended isotonically in organ baths that contained Krebs-Henseleit solution at 37°C under a resting tension of 0.5g. After contractions with acetylcholine (1 × 10^-5M; Ovisot for injection, Daiichi Seiyaku), and the first concentration-response curves were obtained by cumulative applications of 10^-10 to 10^-8M of leukotriene D4 (ULTRA FINE) in the organ baths. After treatments with test compounds at adequate concentrations for 30 minutes, the second concentration-response curves were obtained in the same manner as the first applications. pKB values were calculated using these two concentration-response curves according to the method of Schild [Pharmacological Review, Vol. 9, 242 (1957)]. Indomethacin (1 × 10^-6M, Sigma) was added beforehand to the organ bath to eliminate possible affections by thromboxane A2 and prostaglandin produced by stimulus of leukotriene D4 [Japan J. Pharmacol., Vol. 60, 227 (1992)]. […]

[3] = tested on: bronchoconstriction induced by leukotriene D4; experiment: Inhibitory effect on bronchoconstriction induced by leukotriene D4 (Konzett-Roessler); assay type: in vivo, Male Hartley guinea-pigs; details: Cavia porcellus; oral administration 2 hours before leukotriene D4 (1 µg/kg, cervical vein), anesthetized guinea-pigs, indomethacin and propranolol pretreated
Procedure: Airway resistance was evaluated according to the method of Konzett-Roessler [Naunyn-Schmiedberg's Arch. Exp. Path. Pharmak., Vol. 195, 71 (1940)]. Male Hartley guinea-pigs fasted beforehand for 24 hours were anesthetized with urethane, and then overflowed air volume was measured under artificial ventilation as an index of bronchoconstriction. Various doses of test compounds suspended in 5% gum Arabic were administered orally, and after 2 hours, leukotriene D4 (1 µg/kg; ULTRA FINE) was administered through the cervical vein. Then, values at 2 minutes were measured when maximum responses were obtained. Inhibitory rates compared to the control group were calculated based on the response rate normalized by the overflowed volume at complete closure as 100% bronchoconstriction rate, and the 50% inhibitory doses (ED50 values) were calculated using dose-inhibitory rate curves. Indomethacin (2mg/kg, i.v.) and propranolol (1mg/kg, i.v.) were administered at 10 minutes and 5 minutes before the administration of leukotriene D4, respectively. […]

human liver microsomes = experiment: In vitro metabolism test; assay type: in vitro ADME; details: 0.4mg protein/ml human liver microsomes, 0.02 mM test compound, NADPH-generating system, 37°C for 30 minutes, HPLC
Procedure: 0.05 mM EDTA-0.1M phosphate buffer (pH 7.4), distilled water, 0.4mg protein/ml human liver microsomes and 0.02 mM test compound were mixed in a test tube under ice-cooling. After the mixture was shaken at 37°C for 2 minutes beforehand, the mixture was added with a ready-mix of NADPH-generating system and then shaken at 37°C for 30 minutes. After the incubation, the reaction was stopped by cooling with ice. The mixture was added with acetonitrile and well mixted, and then centrifuged at 3000 rpm for 10 minutes. The resulting supernatant was subjected to HPLC measurement, and the residual rate of test compound was calculated from the ratio of a peak area of an unchanged compound in the reaction sample in comparison with a non-reaction mixture. Preparations of reagents and reaction mixtures were carried out by referring to Shin Seikagaku Koza, Vol. 5: Biological oxidation and drug metabolism edited by The Japanese Biochemical Society. […]

CC(C)CCCC(NS(=O)(=O)c1ccc(Cl)cc1)c1ccc(CCCC(=O)O)cc1 (centres unmarked) [Reference compound 2, 4-[4-[1-(4-chlorophenylsulfonylamino)-5-methylhexyl]phenyl]butyric acid, reference compound]
Kb [1]: 1.26 nM
inhibition in vivo at 0.3 mg/kg [2]: 81%
Kb (leukotriene D4): 251 nM
ED50 [3]: 9.2 mg/kg
Residual rate (%) (human liver microsomes): 50%

Reference: patent EP0943606A1, “BENZENESULFONAMIDE DERIVATIVES AND DRUGS CONTAINING THE SAME” (HOKURIKU SEIYAKU CO., LTD., priority 1996, dated 1998)
